For this assay, the target named is T1, human FSH receptor (Homo sapiens, UniProt P23945).
T1 sequence (P23945 18-695): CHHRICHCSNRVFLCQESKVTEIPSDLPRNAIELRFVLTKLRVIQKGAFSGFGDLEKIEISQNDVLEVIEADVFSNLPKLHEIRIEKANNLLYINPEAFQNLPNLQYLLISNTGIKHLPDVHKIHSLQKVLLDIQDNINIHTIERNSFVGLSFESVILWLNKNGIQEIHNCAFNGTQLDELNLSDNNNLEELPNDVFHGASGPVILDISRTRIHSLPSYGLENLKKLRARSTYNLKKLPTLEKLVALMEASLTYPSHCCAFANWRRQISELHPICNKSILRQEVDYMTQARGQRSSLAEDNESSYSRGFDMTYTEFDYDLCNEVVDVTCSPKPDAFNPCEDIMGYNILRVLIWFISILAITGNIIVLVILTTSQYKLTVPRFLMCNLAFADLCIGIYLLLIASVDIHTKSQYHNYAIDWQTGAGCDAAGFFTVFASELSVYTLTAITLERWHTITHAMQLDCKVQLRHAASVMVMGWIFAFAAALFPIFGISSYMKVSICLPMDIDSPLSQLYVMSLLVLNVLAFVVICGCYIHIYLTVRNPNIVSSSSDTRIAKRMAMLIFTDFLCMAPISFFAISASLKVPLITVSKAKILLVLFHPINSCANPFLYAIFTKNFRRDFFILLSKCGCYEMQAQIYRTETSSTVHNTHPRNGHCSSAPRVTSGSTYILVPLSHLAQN
Description: Agonistic activity of compounds at the human FSH receptor expressed in CHO cells
Agonistic activity of the compounds at the human FSH receptor was determined in Chinese Hamster Ovary (CHO) cells stably transfected with the human FSH receptor and cotransfected with a cAMP responsive element (CRE)/promotor directing the expression of a firefly luciferase reporter gene. […] Cells (7,500 cells/well of a 384 well plate) were incubated in Dulbecco' minimal essential F12 modified medium (Invitrogen), supplemented with 1 µg/ml bovine insulin, 5 µg/ml human apotransferrin, 80 U/ml penicillin G and 80 µg/ml streptomycin with the test compounds (concentration between 0.0316 nM and 10.0 µM) in duplicate in a humidified atmosphere (95%) at 5-7% CO2 and 37°C. The final concentration of DMSO was 1%. After 4 hours of incubation, plates were allowed to adjust to room temperature for 1 hour. Then, Luclite (PerkinElmer) solution was added to the wells and cells were allowed to lyse for at least 1 hour at room temperature. Subsequently, luciferase activity was measured in a luminescence counter. The signal is expressed as counts per second (cps). The EC50 (concentration of the test compound that elicits half-maximal (50 %) luciferase stimulation compared to the compound's maximally attainable effect) and efficacy values (maximal effect of the test compound as percentage of the maximal effect of recombinant human FSH) of the compounds were determined using the software program MathIQ (version 2.0, ID Business Solutions Limited).
`COc1cc2c(cc1OC)-c1c(c(C(=O)N(C)C(C)(C)C)nn1-c1ccc(F)cc1)CC2` [Example 1e, N-tert-butyl-1-(4-fluorophenyl)-7,8-dimethoxy-N-methyl-4,5-dihydro-1H-benzo[g]indazole-3-carboxamide]: the EC50 lay within 1000 to 10000 nM. To `COc1cc2c(cc1OC)-c1c(c(C(=O)N3CCCN(C(C)=O)CC3)nn1-c1ccc(F)cc1)CC2` [Example 1f] belongs 1000 to 10000 nM; to `COc1cc2c(cc1OC)-c1c(c(C(=O)N3CCCN(C(=O)C4CCC4)CC3)nn1-c1ccc(F)cc1)CC2` [Example 1g], 100 to 1000 nM. The figure for `COc1cc2c(cc1OC(C)C)-c1c(c(C(=O)N(C)C(C)(C)C)nn1-c1nc3ccccc3s1)CC2` [Example 4d, 1-(benzo[d]thiazol-2-yl)-N-tert-butyl-8-isopropoxy-7-methoxy-N-methyl-4,5-dihydro-1H-benzo[g]indazole-3-carboxamide] is 1000 to 10000 nM; for `COc1cc2c(cc1OC(C)C)-c1c(c(C(=O)N(C)C(C)(C)C)nn1-c1cccnc1)CC2` [Example 6b, N-tert-butyl-8-isopropoxy-7-methoxy-N-methyl-1-(pyridin-3-yl)-4,5-dihydro-1H-benzo[g]indazole-3-carboxamide] it is 100 to 1000 nM.

`C=CCc1cccc(-n2nc(C(=O)N(C)C(C)(C)C)c3c2-c2cc(OC(C)C)c(OC)cc2CC3)c1` [Example 7ca, 1-(3-allylphenyl)-N-tert-butyl-8-isopropoxy-7-methoxy-N-methyl-4,5-dihydro-1H-benzo[g]indazole-3-carboxamide] came in with an EC50 of 1000 to 10000 nM. For the compound `C=C(C)c1cccc(-n2nc(C(=O)N(C)C(C)(C)C)c3c2-c2cc(OC(C)C)c(OC)cc2CC3)c1` [Example 7cb, N-tert-butyl-8-isopropoxy-7-methoxy-N-methyl-1-(3-(prop-1-en-2-yl)phenyl)-4,5-dihydro-1H-benzo[g]indazole-3-carboxamide], the EC50 is 1000 to 10000 nM. `C=Cc1cccc(-n2nc(C(=O)N(C)C(C)(C)C)c3c2-c2cc(OC(C)C)c(OC)cc2CC3)c1` [Example 7cc, N-tert-butyl-8-isopropoxy-7-methoxy-N-methyl-1-(3-vinylphenyl)-4,5-dihydro-1H-benzo[g]indazole-3-carboxamide]: the EC50 lay in the range of 100 to 1000 nM. The figure for `CCc1cccc(-n2nc(C(=O)N(C)C(C)(C)C)c3c2-c2cc(OC(C)C)c(OC)cc2CC3)c1` [Example 7cd, N-tert-butyl-1-(3-ethylphenyl)-8-isopropoxy-7-methoxy-N-methyl-4,5-dihydro-1H-benzo[g]indazole-3-carboxamide] is 100 to 1000 nM; for `COc1cc2c(cc1OC(C)C)-c1c(c(C(=O)N(C)C(C)(C)C)nn1-c1cccc(C3CC3)c1)CC2` [Example 7cf, N-tert-butyl-1-(3-cyclopropylphenyl)-8-isopropoxy-7-methoxy-N-methyl-4,5-dihydro-1H-benzo[g]indazole-3-carboxamide] it is 100 to 1000 nM. The figure for `COc1cc2c(cc1OC(C)C)-c1c(c(C(=O)N(C)C(C)(C)C)nn1-c1cccc([N+](=O)[O-])c1)CC2` [Example 8ca, N-tert-butyl-8-isopropoxy-7-methoxy-N-methyl-1-(3-nitrophenyl)-4,5-dihydro-1H-benzo[g]indazole-3-carboxamide] is 1000 to 10000 nM; for `COc1cc2c(cc1OC(C)C)-c1c(c(C(=O)N(C)C(C)(C)C)nn1-c1cccc(F)c1)CC2` [Example 8cb, N-tert-butyl-1-(3-fluorophenyl)-8-isopropoxy-7-methoxy-N-methyl-4,5-dihydro-1H-benzo[g]indazole-3-carboxamide] it is 100 to 1000 nM; for `COc1cccc(-n2nc(C(=O)N(C)C(C)(C)C)c3c2-c2cc(OC(C)C)c(OC)cc2CC3)c1` [Example 8cc, N-tert-butyl-8-isopropoxy-7-methoxy-1-(3-methoxyphenyl)-N-methyl-4,5-dihydro-1H-benzo[g]indazole-3-carboxamide] it is 100 to 1000 nM.

For orientation: EC50 means the concentration needed to bring the measured effect to its halfway point. A low value points to an effect from little substance.

Values taken from EP2459551B1, “DIHYDROBENZOINDAZOLES” (Merck Sharp & Dohme B.V., priority 2009, dated 2011).
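Note: CHO cells stably expressing human FSH receptor with CRE-driven firefly luciferase, luminescence read as counts per second after 4 h compound exposure in 1% DMSO.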
